According to patent publication US7691874B2, “Neuroprotective properties of dextrorotatory morphinans” (priority 2004, dated 2010):
Marks after values point to notes of the source that are not given here.

What was measured:
LPS-treated mice [1] = test: LPS model, HM versus L-dopa/carbidopa: locomotor activity; format: in vivo; conditions: 3 weeks after LPS
Protocol: Locomotor activity was examined for 60 min at 3 weeks after LPS treatment. LPS-induced significant reduction (P<0.01 vs. saline treatment) in locomotor activity was attenuated by L-dopa (P<0.05), carbidopa+L-dopa (P<0.05) or HM (P<0.01) (FIGS. 24 and 25).

LPS-treated mice [2] = test: Nigral TH-IR in LPS-treated mice; format: in vivo; conditions: 24 mg/kg i.p.
Description: FIGS. 8A-8B. […] Magnification=40×.
(§1) Control animals received striatal injection with PBS.

LPS-treated mice [3] = test: LPS-induced loss of nigral TH-IR with CB1 agonist/antagonist and HM; format: in vivo; conditions: given alone
Protocol: Mortality was observed by 2 weeks after bilateral LPS intrastriatal injection (one side: 2 μg×2).

cocaine-treated mice [4] = test: Cocaine-induced hyperlocomotion; format: in vivo
Outline: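 Morphinans (15 and 30 mg/kg, i.p.) or dimemorfan (20 mg/kg, i.p.) given 30 minutes before cocaine (5 and 20 mg/kg, i.p.); treatments continued for 7 days. Locomotion scored as central activity (non-specific movement in box center) and marginal activity (circling).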

MPTP-treated mice = test: MPTP model, HM versus L-dopa/carbidopa: nigral TH-IR; format: in vivo; conditions: HM 24 mg/kg i.p., L-dopa 200 mg/kg p.o., carbidopa 20 mg/kg p.o.
Protocol: FIGS. 21A-21G show effects of carbidopa, L-dopa, carbidopa+L-dopa and HM on the nigral tyrosine hydroxylase-like immunoreactivity (TH-IR) of the mice treated with MPTP. […] Magnification=40×.
A prescription drug for treating Parkinsonian patients is L-dopa or carbidopa plus L-dopa. Thus, the neuroprotective effects of HM was compared with L-dopa, carbidopa, or carbidopa plus L-dopa. […] Locomotor activity was examined for 60 min after final treatment of MPTP. Mice were sacrificed at 24 h after final MPTP administration. HM (24 mg/kg, i.p.), L-dopa (200 mg/kg, p.o.) with or without carbidopa (20 mg/kg, p.o.) was administered for 2 weeks before first MPTP challenge.

cocaine-treated mice [5] = test: Cocaine-induced conditioned place preference with CB1 modulation
Protocol: (§2) The control mice received an i.p. injection of saline just before entering the white or black compartment. Cocaine or MA dissolved in saline was administered immediately before the mice were placed in the white compartment. To test the effect of cocaine alone or MA alone or in combination with exemplified morphinans (DM, HM, AM, CM or DF), each morphinan was administered 2 hr before cocaine or saline injection.
(§3) On day 1, the mice were pre-exposed to the test apparatus for 5 min. The guillotine doors were raised and the mice were allowed to move freely between the two compartments. On day 2, the time each mouse spent in each compartment was recorded for 15 min. On days 3, 5, 7, 9, 11, and 13, the mice were injected with cocaine before being confined to the white compartment, the non-preferred side, for 20 min. On days 4, 6, 8, 10, and 12, the mice were injected with saline before being confined to the black compartment, the preferred side, for 20 min. On day 14, the guillotine doors were raised. The mice were initially placed in the tunnel and the time spent by the mice in the two compartments was recorded for 15 min. The scores were calculated from the differences in the time spent in the white compartment in the testing and pre-testing phases.

σ1 receptors = σ1 receptors (Homo sapiens, UniProt Q99720); conditions: cited from earlier work
Sequence of σ1 receptors (Q99720 whole entry): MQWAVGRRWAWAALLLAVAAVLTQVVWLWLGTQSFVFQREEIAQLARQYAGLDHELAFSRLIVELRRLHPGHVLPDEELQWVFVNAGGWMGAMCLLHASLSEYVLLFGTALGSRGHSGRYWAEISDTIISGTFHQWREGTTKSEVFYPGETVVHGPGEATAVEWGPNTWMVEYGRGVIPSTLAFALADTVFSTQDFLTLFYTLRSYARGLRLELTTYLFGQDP

cocaine-treated mice [6] = test: Cocaine-induced behavioural sensitization with CB1 modulation
LPS-treated mice [7] = test: Striatal dopamine and metabolites in LPS-treated mice; format: in vivo; conditions: for Concentration DA in the striatum: 3 weeks after LPS
Description: as §1
Mice were sacrificed at 3 weeks after LPS treatment.

MA-treated mice [8] = test: Methamphetamine (MA)-induced hyperthermia; format: in vivo; conditions: 24 mg/kg; MA 7.5 mg/kg i.p. x 4 at 2-h intervals
Protocol: Rectal temperature was recorded at 40 min after each MA treatment. […] Mice were sacrificed at 3 days after final MA injection.
FIGS. 10A-10B show effect of morphinans on the methamphetamine (MA)-induced hyperthermia. Mice received i.p. injections of MA (four injections of 7.5 mg/kg each) at 2-h intervals under the ambient temperature of 22.0±0.5° C. Temperatures were recorded at 40 min after each MA treatment (Arrow=MA injection).

MA-treated mice [9] = test: MA-induced conditioned place preference with CB1 modulation
Protocol: as §2, §3

MA-treated mice [10] = test: Striatal dopamine and metabolites in MA-treated mice; format: in vivo; conditions: for Concentration DA in the striatum: 3 days after final MA
Description: Mice were sacrificed at 3 days after final MA injection.

Oc1ccc2c(c1)[C@@]13CCCC[C@H]1[C@@H](C2)NCC3 [HM, 3-hydroxymorphinan]
effect on LPS-induced reduction in locomotor activity (LPS-treated mice [1]): attenuated | effect on LPS-induced reduction in nigral TH-positive cells (LPS-treated mice [2]): significantly attenuated the reduction in TH-positive cells | effect on LPS-induced reduction in nigral TH-IR (LPS-treated mice [3]): Attenuates LPS-Induced Reduced Tyrosine Hydroxylase-like Immunoreactivity | effect on locomotor activity induced by low dose of cocaine (cocaine-treated mice [4]; cocaine 5 mg/kg i.p. x 7 days, morphinan 15 or 30 mg/kg (DF 20 mg/kg) i.p.): consistently attenuated locomotor activity induced by a low dose of cocaine | effect on hyperactivity induced by high dose of cocaine (cocaine-treated mice [4]; cocaine 20 mg/kg i.p. x 7 days, morphinan 15 or 30 mg/kg i.p. 30 min before): not uniform | effect on MPTP-induced nigral loss in TH-IR (MPTP-treated mice): significantly attenuated | CPP response of the compound itself (cocaine-treated mice [5]; AM 251 0.3, HM 20, ACEA 2 mg/kg, no cocaine): Neither saline-, AM 251 (0.3 mg/kg)-treated nor HM (20 mg/kg)-treated animals showed any CPP response | effect on cocaine-induced CPP (cocaine-treated mice [5]; cocaine 10 mg/kg): significantly reduced | affinity for σ1 receptors (σ1 receptors): high affinity ligands | behavioural effects of the compound itself (cocaine-treated mice [6]; AM 251 0.3, ACEA 2, HM 20 mg/kg, no cocaine): Neither saline-, AM 251 (0.3 mg/kg)-, ACEA (2 mg/kg)-treated nor HM (20 mg/kg)-treated animals showed any specific behavioural effects | effect on cocaine-induced behavioural sensitization (cocaine-treated mice [6]; cocaine 10 mg/kg/day i.p. x 7, challenge one month later): significantly reduced | effect on LPS-induced reductions in striatal DA, DOPAC and HVA (LPS-treated mice [7]; 24 mg/kg pretreatment): significantly protected | Concentration DOPAC in the striatum (LPS-treated mice [7]; morphinan 12 (mg/kg) + LPS): 83 ± 10 ng/100 mg wet tissue | Concentration HVA in the striatum (LPS-treated mice [7]; morphinan 12 (mg/kg) + LPS): 86 ± 8 ng/100 mg wet tissue | Concentration DA in the striatum (LPS-treated mice [7]; morphinan 12 (mg/kg) + LPS, mean ± S.E.M., 8 animals): 682 ± 70 ng/100 mg wet tissue | Concentration DOPAC in the striatum (LPS-treated mice [7]; morphinan 24 (mg/kg) + LPS): 112 ± 11^d ng/100 mg wet tissue | Concentration HVA in the striatum (LPS-treated mice [7]; morphinan 24 (mg/kg) + LPS): 102 ± 10^b ng/100 mg wet tissue | Concentration DA in the striatum (LPS-treated mice [7]; morphinan 24 (mg/kg) + LPS): 916 ± 98^d ng/100 mg wet tissue | effect on MA-induced hyperthermia (rectal temperature) (MA-treated mice [8]): most efficacious | CPP response of the compound itself (MA-treated mice [9]; AM 251 0.3, HM 20, ACEA 2 mg/kg i.p., no MA): Neither saline-, AM 251 (0.3 mg/kg, i.p.)-treated nor HM (20 mg/kg)-treated animals showed any CPP responses | effect on MA-induced CPP (MA-treated mice [9]; mouse, in vivo): significantly reduced the CPP produced by MA | effect on MA-induced reductions in striatal DA, DOPAC and HVA (MA-treated mice [10]; 24 mg/kg pretreatment): significantly protected | Concentration DOPAC in the striatum (MA-treated mice [10]; morphinan 12 (mg/kg) + MA): 88 ± 10 ng/100 mg wet tissue | Concentration HVA in the striatum (MA-treated mice [10]; morphinan 12 (mg/kg) + MA): 82 ± 8 ng/100 mg wet tissue | Concentration DA in the striatum (MA-treated mice [10]; morphinan 12 (mg/kg) + MA, mean ± S.E.M., 8 animals): 685 ± 64 ng/100 mg wet tissue | Concentration DOPAC in the striatum (MA-treated mice [10]; morphinan 24 (mg/kg) + MA): 103 ± 9^d^ ng/100 mg wet tissue | Concentration HVA in the striatum (MA-treated mice [10]; morphinan 24 (mg/kg) + MA): 100 ± 11^c ng/100 mg wet tissue | Concentration DA in the striatum (MA-treated mice [10]; morphinan 24 (mg/kg) + MA): 864 ± 82^d ng/100 mg wet tissue
